Experimental data from patent US20200237700A1, “METHODS OF REDUCING OR PREVENTING OXIDATION OF SMALL DENSE LDL OR MEMBRANE POLYUNSATURATED FATTY ACIDS” (Amarin Pharmaceuticals Ireland Limited, priority 2015, published 2020).
Values joined by “and” are separate entries in the source; they are usually repeats but may differ in a detail not shown here. Identical values can stand only once.

Tests used:
HUVECs exposed to oxLDL = assay: NO and ONOO− release from HUVECs exposed to oxLDL, nanosensors (Example 8); type: cell-based, human
Protocol: Human umbilical vein endothelial cells (HUVECs) were isolated into primary cultures from female donors by Clonetics (San Diego, Calif.) and purchased as proliferating cells. All cell culture donors were healthy, with no pregnancy or prenatal complications. […] The confluent cells (4 to 5×10^5 cells/35 mm dish) were placed with minimum essential medium containing 3 mM L-arginine and 0.1 mM BH4 [(6R)-5,6,7,8-tetrahydrobiopterin]. Before experimental use, the cells (from second or third passage) were rinsed twice with Tyrode-HEPES buffer with 1.8 mM CaCl2.
The omega-3 fatty acids (O3FAs) cis-5,8,11,14,17-eicosapentaenoic acid (EPA) and docosahexaenoic acid (DHA) were purchased from Sigma-Aldrich (St. Louis, Mo.) and prepared initially at 11 mM in redistilled ethanol. Primary and secondary O3FA stock solutions were prepared and stored under argon at −20° C. […]
Oxidation was monitored by the use of measurements of TBARS. […] TBARS concentration was determined as malondialdehyde (MDA) equivalents with the use of an MDA standard curve. […]
The amperometric method (with a response time of 0.1 ms) provides a quantitative signal (current) that is directly proportional to changes (from basal levels) in NO or ONOO^− concentration. […] Basal NO or ONOO^− levels were measured by differential pulse voltammetry in separate experiments. […]

[1] = test system: human LDL (unfractionated); assay: Copper-induced unfractionated LDL oxidation, TBARS 1 hr (Example 7); type: biochemical; settings: 10 μM
Protocol: (§1) An experiment to study the antioxidant effect of EPA in LDL and small dense […] performed. […] Fenofibrate, gemfibrozil, and niacin were purchased from Sigma-Aldrich. […] Vitamin E was also incubated with sample aliquots as a positive control.

human sdLDL = assay: Copper-induced sdLDL oxidation, TBARS (Example 7); type: biochemical
Protocol: as §1

[2] = test system: sdLDL isolated from human subjects under hyperglycemia; assay: Glucose-induced sdLDL oxidation, TBARS/MDA (Example 10); type: biochemical; settings: 10.0 μM; glucose 200 mg/dL
Protocol: Vitamin E (α-tocopherol) purchased from Sigma-Aldrich was prepared in ethanol at 1.0 mM (c=3.06×10^4 M^−1 cm^−1 at 294 nm) prior to experimental use. Test compounds were further diluted in ethanol or aqueous buffer as needed. Phosphate Buffered Saline (PBS) purchased from Sigma-Aldrich was prepared in double distilled water at 10 mM (138 mM NaCl, 2.7 mM KCl, pH 7.4). […] Lipid oxidation was measured by the colorimetric detection of malondialdehyde (MDA), a marker of oxidative stress. Data were presented as mean±SD for (n) separate samples or experiments. Differences between groups were analyzed using the unpaired, two-tailed Student's t-test (for comparisons between only two groups) or ANOVA followed by Student-Newman-Keuls multiple comparisons post hoc analysis (for comparisons between three or more groups).

[3] = Small angle x-ray diffraction of cholesterol-enriched POPC model membranes, cholesterol domain peak intensity (Example 9); type: physicochemical
Protocol: The fatty acid stock solutions were stored at −20° C. until use. […] Samples were shell-dried under nitrogen gas and placed under vacuum for 3 hours to remove residual solvent at room temperature. After desiccation, each sample was resuspended in saline buffer (0.5 mM HEPES, 154 mM NaCl, pH 7.3) to yield a final phospholipid concentration of 2.5 mg/mL. Lipid suspensions were then vortexed for 3 minutes at ambient temperature to form MLVs. Membrane lipid vesicles were oriented for x-ray diffraction analysis as described by others (e.g., Herbette et al., Biophys. […] Briefly, a 100 μL aliquot of each MLV preparation (containing 250 μg MLV) was transferred to a Lucite® sedimentation cell fitted with an aluminum foil substrate designed to collect MLVs into a single membrane pellet upon centrifugation. […] After centrifugal orientation, sample supernatants were aspirated and aluminum foil substrates, each supporting a single membrane pellet, were removed from the sedimentation cells. Sample pellets were dried for 5-10 minutes at ambient conditions, mounted onto curved glass supports, and placed in hermetically-sealed, brass or glass containers (for immediate analysis or temporary storage, respectively). All x-ray diffraction experiments were conducted at 20° C., 74% relative humidity. The latter was established by exposing membrane samples to saturated solutions of L-(+)-tartaric acid (K2C4H4O6.½H2O) for at least 1 hour prior to experimental analysis. Oriented membrane samples were aligned at grazing incidence with respect to a collimated, mono-chromatic CuKα x-ray beam (Kα1 and Kα2 unresolved; λ=1.54 Å) produced by a Rigaku Rotaflex RU-200, high-brilliance microfocus generator (Rigaku-MSC, The Woodlands, Tex.) as previously described (Mason et al., Biophys. J., vol. 55(4), pages 769-778 (1989)). The samples were initially subjected to x-ray diffraction analysis at least 12 hours after formation of the membrane pellets and retested for up to several days. […] Collimation of the x-ray beam was achieved using a single Franks mirror. Diffraction data were collected on a one-dimensional, position-sensitive electron detector (Hecus X-ray Systems, Graz, Austria) at a sample-to-detector distance of 150 mm from the sample site. […] Routines written in Origin 8.6 (OriginLab Corporation, Northampton, Mass.) were used to determine total peak area (associated with all diffraction peaks in a given pattern) against which the second-order cholesterol domain peak was normalized. […] Differences between groups were analyzed using the two-tailed, Student's t-test (for comparisons between only two groups) or ANOVA followed by Dunnett or Student-Newman-Keuls multiple comparisons post-hoc analysis (for comparisons between three or more groups). […]

HUVECs = assay: NO release from HUVECs incubated with treated, oxidized sdLDL samples (Example 12); type: cell-based, human; settings: EPA-treated
Protocol: All samples, with the exception of non-oxidized sdLDL controls, were subjected to copper-induced oxidation for 1 hour. Human umbilical vein endothelial cells (HUVECs) were incubated with the various sdLDL samples, stimulated with calcium, and monitored for nitric oxide (NO) and peroxynitrite (ONOO^−) release using nanosensor technology.

[4] = EPA to phospholipid 1:30 (Table 3)

Row | SMILES | NO/ONOO− Ratio (HUVECs exposed to oxLDL; oxLDL 20 min, then treatment 1 hour, EPA 10 μM, ATM 1.0 μM) | effect on unfractionated LDL oxidation as compared to vehicle-treated controls [1] | effect on sdLDL oxidation as compared to vehicle-treated controls (human sdLDL; 10 μM, 1 hour) | glucose-induced sdLDL oxidation [2] | effect on cholesterol domains / domain size ([3]; drug-to-phospholipid mole ratio 1:30) | increased NO release (HUVECs exposed to oxLDL; ECs exposed to oxLDL, as compared to vehicle) | NO release increased as compared to non-oxidized sdLDL treatment (HUVECs) | NO release increased as compared to oxidized LDL treatment (HUVECs) | inhibited TBARS formation compared to vehicle-treated control ([1]; unfractionated LDL) | sdLDL oxidation after 4 hours as compared to vehicle or DHA (human sdLDL; 10.0 μM, 4 hours) | inhibition of sdLDL oxidation vs vehicle (human sdLDL; each agent at 1.0 μM, 1 hr) | inhibited TBARS formation / sdLDL oxidation vs vehicle (human sdLDL; each agent at 10 μM, 1 hr) | inhibited sdLDL oxidation as compared to vehicle controls [2] | sdLDL oxidation (formation of MDA) [2] | % Change (vs. Control) [3, 4] | Relative Cholesterol Domain Peak Intensity [3, 4]
1 | O=C(O)c1cccnc1 [niacin, nicotinic acid] | 2.00 ± 0.52 | no significant effect | no significant effect | did not inhibit glucose-induced sdLDL oxidation | no significant changes in cholesterol domain size |  |  |  |  |  |  |  |  |  |  | 
2 | CC/C=C\C/C=C\C/C=C\C/C=C\C/C=C\CCCC(=O)O [EPA, cis-5,8,11,14,17-eicosapentaenoic acid] |  |  |  |  |  | 45% | 23% | 53% | > 90% | significantly inhibited sdLDL oxidation | 19±8% | 93±2% and 92±8% | 94% | 0.2 ± 0.1 µM | −65.5 ± 17.1% | 14.6 ± 5.0
